Experimental data from the RepoRT retention time repository.

Assay: Agilent ZORBAX 300 SB-C18, 150 × 1 mm, 3.5 µm; A: water + 0.01% heptafluorobutyric acid; B: acetonitrile + 0.01% heptafluorobutyric acid; gradient (min/%B) 0/0 100/90
Settings: stereoisomer not certain
Work on `Cc1cccc(C(=O)C=CN(C)C)c1` yielded an LC retention time of 10.9 min.
Molecule `CC(C)CNC(=O)C(=O)NC1CC(C)(C)NC(C)(C)C1` has an LC retention time of 8.6 min.
With `CNCC1COCCO1` (configuration not stated) the LC retention time was 5.78 min.
For `c1ccnnc1`, the LC retention time was 4.58 min.
`O=C(Nc1cccc(C2=NCCN2)c1)Nc1cccc(C2=NCCN2)c1` gave an LC retention time of 7.98 min.
Work on `CCNC1(c2cccs2)CCCCC1` yielded an LC retention time of 9.19 min.
`CN(C)CCC(=O)c1ccc2ccccc2c1` showed an LC retention time of 9.4 min.
`O=C1CCN(c2ccccc2)N1` gave an LC retention time of 9.05 min.
`Nc1ccccc1C(=O)NN=Cc1cccc2ccccc12` showed an LC retention time of 13.3 min.
`COc1cc2ccccc2cc1CNc1ccccc1` showed an LC retention time of 15.7 min.
In the case of `Cc1c(C(=O)O)[nH]c(=O)[nH]c1=O`, the LC retention time is reported as 1.56 min.
`Cn1cc(C(=O)O)c2ccccc21` gave an LC retention time of 9.81 min.
`CN(C)CCN(C)C` gave an LC retention time of 7.04 min.
`O=C(O)CNc1ccccc1C(=O)O` showed an LC retention time of 9.2 min.
`CCCCCCN(C)CCCCCC` showed an LC retention time of 11.9 min.
`CCCCC1CCC(C(=O)NCC2(N(C)C)CCCCC2)CC1` (configuration not stated) gave an LC retention time of 12.4 min.
`CC(=O)c1cccc(NC(=O)c2ccc(C)cc2)c1` gave an LC retention time of 13 min.
With `CCN(CC)c1cc(C)c2ccccc2n1` the LC retention time was 9.54 min.
Work on `CCN(CC)CCOc1ccccc1OC` yielded an LC retention time of 8.83 min.
With `Cc1cc(C=O)c(C)n1C(C)C` the LC retention time was 11.1 min.
With `C=CCN1CCC23CCCCC2C1Cc1ccc(O)cc13` (configuration not stated) the LC retention time was 9.82 min.
For `c1ccc(C(NCc2cccs2)c2ccccc2)cc1`, the LC retention time was 11.8 min.
`O=C(Oc1ccccc1)c1cccnc1` showed an LC retention time of 11.9 min.
Molecule `COc1ccc2c(c1)C13CCCCC1C(C2)N(C)CC3` (configuration not stated) has an LC retention time of 10.6 min.
In the case of `CNCc1cccc(C)c1`, the LC retention time is reported as 8.02 min.
`Cn1c(-c2c(-c3ccc4ccccc4n3)cnc3ccccc23)nc2ccccc21` showed an LC retention time of 12.3 min.
For `NCCCCCCNCCCCCCN`, the LC retention time was 7.37 min.
`CSC(=N)N` gave an LC retention time of 4.66 min.
`Cc1ccc(C(=O)NC(=Cc2ccc(C(C)C)cc2)C(=O)NCc2cccnc2)cc1` showed an LC retention time of 11.9 min.
Work on `Nc1ncnc2[nH]ncc12` yielded an LC retention time of 5.98 min.
Molecule `CC(C)NCC(O)COc1cccc2ccccc12` (configuration not stated) has an LC retention time of 10.4 min.
Molecule `CN1CCC23c4c5ccc(OC6OC(C(=O)O)C(O)C(O)C6O)c4OC2C(O)C=CC3C1C5` (configuration not stated) has an LC retention time of 6.59 min.
Work on `COc1ccc2c(c1)C(C)N1C(=O)c3cc(OC)c(OC)cc3C1O2` (configuration not stated) yielded an LC retention time of 13.1 min.
`Cc1nc2ccccc2c(=O)o1` gave an LC retention time of 9.03 min.
`COc1cc(C=CC(=O)c2ccc3c(c2)OCO3)cc(OC)c1OC` showed an LC retention time of 14.7 min.
`c1cc(-c2nn[nH]n2)cc(-n2cccn2)c1` showed an LC retention time of 9.34 min.
With `Cc1ccc(C=NNC(=O)C(=O)NC(C)C)o1` the LC retention time was 9.79 min.
`COc1ccc(N=Nc2c(N)n[nH]c2N)cc1` showed an LC retention time of 9.61 min.
For `c1ccc2nc3c(nc2c1)[nH]c1ccccc13`, the LC retention time was 12 min.
In the case of `CCNCC(=O)Nc1c(C)cccc1C`, the LC retention time is reported as 8.77 min.
For `CC(C)(N)Cc1ccccc1`, the LC retention time was 8.82 min.
For `Cc1ccncn1`, the LC retention time was 6.89 min.
For `Oc1ccccc1N1CCCCC1`, the LC retention time was 7.89 min.
With `CNC(C)C(O)c1ccccc1` (configuration not stated) the LC retention time was 8.37 min.
Molecule `CCCCCC(=O)OC1(C(C)=O)CCC2C3CCC4=CC(=O)CCC4(C)C3CCC21C` (configuration not stated) has an LC retention time of 21.2 min.
`CC1CNCC(C)N1` (configuration not stated) gave an LC retention time of 6.7 min.
`NCCCNCCN` showed an LC retention time of 7.42 min.
Molecule `NCCCNCCNCCCN` has an LC retention time of 7.73 min.
`Nc1ccc2c(c1)CCC2` gave an LC retention time of 8.35 min.
In the case of `NCC(=O)Nc1ccccc1`, the LC retention time is reported as 7.45 min.
`Cc1ccc(-c2nc(-c3ccc(-c4ccccc4)cc3)[nH]c2-c2ccccc2)cc1C` gave an LC retention time of 15 min.
In the case of `CC1C(=O)CCN(C(C)(C)C)C1C` (configuration not stated), the LC retention time is reported as 8.44 min.
`C1CN(CCN2CCOCC2)CCO1` showed an LC retention time of 6.81 min.
With `Cc1cc(C)c2c(=O)n(CC(=O)NC(C)CCc3ccccc3)c(=O)n(C)c2n1` (configuration not stated) the LC retention time was 14.9 min.
Molecule `O=C(NCc1n[nH]c(=O)c2ccccc12)C(=Cc1ccco1)NC(=O)c1ccco1` has an LC retention time of 9.12 min.
Work on `Nc1ccc(C(=O)Nc2cccc3ccccc23)cc1` yielded an LC retention time of 11.1 min.
`c1ccc(CNCc2ccccc2)cc1` gave an LC retention time of 9.71 min.
Work on `NC1CCCCC1N` (configuration not stated) yielded an LC retention time of 7.01 min.
`c1cncc(N2CCN(c3cccnc3)CC2)c1` showed an LC retention time of 7.33 min.
Molecule `COc1cccc(C2(O)CCCCC2CN(C)C)c1` (configuration not stated) has an LC retention time of 9.38 min.
With `CCCCN1CCCCC1C(=O)Nc1c(C)cccc1C` (configuration not stated) the LC retention time was 10.5 min.
With `CCc1ccc(N2CC(C(=O)O)CC2=O)cc1` (configuration not stated) the LC retention time was 10.5 min.
Molecule `Nc1cccc(C2=NCCN2)c1` has an LC retention time of 6.85 min.
`CC(C)NCCN(CCNC(C)C)CCNC(C)C` showed an LC retention time of 7.84 min.
With `c1ccc(-c2ccc3ccccc3n2)nc1` the LC retention time was 11.3 min.
`c1ccc2c(N3CCCCC3)nc(N3CCCC3)nc2c1` showed an LC retention time of 11.7 min.
Work on `CCCN(CCC)CCC` yielded an LC retention time of 8.17 min.
